{"source": "paper PMC5556019", "about": "“Targeting Apolipoprotein E/Amyloid β Binding by Peptoid CPO_Aβ17-21 P Ameliorates Alzheimer’s Disease Related Pathology and Cognitive Decline” (Scientific Reports, 2017)", "key": {"[1]": {"system": "APP/PS1 Tg mice", "assay": "Cognitive tests (radial arm maze, object recognition)", "assay_type": "in vivo", "conditions": "0.2 mg per mouse i.p. twice weekly for 4 months", "procedure": "The effect of CPO_Aβ17-21 P on Aβ deposition was tested in APP/PS1 Tg mice with plaque pathology. This AD mouse model develops plaque pathology from the age of 3 months. Animals were divided into two groups and received intraperitoneally (i.p.) injections of 0.2 mg of CPO_ Aβ17–21 P per mouse in sterile saline (n = 11, 5 male, 6 female) or saline alone (n = 10, 5 male, 5 female) as a control twice weekly for 4 months, beginning at age 3 months. During the treatment, veterinary staff monitored animals for any signs of toxicity, such as changes in body weight, physical appearance, and altered behavior. Animals were sacrificed a week after administration of the last treatment dose and behavioral testing. All mouse care and experimental procedures were compliant with guidelines of animal experimentation and were approved by the Institutional Animal Care and Use Committee at the New York University School of Medicine. […]\nSpatial learning (working memory) was tested using a radial arm maze with eight radial 30-cm-long arms originating from the central space. […] The number of errors (entry into previously visited arms) was recorded during each session.\nThe spontaneous object recognition test measures short-term memory. […] The amount of time spent exploring each object within a defined zone of the area was automatically recorded by a tracking system (San Diego Instruments, San Diego, CA)."}, "[2]": {"system": "APP/PS1 Tg mice", "assay": "Brain Aβ and oligomeric Aβ levels by ELISA and western blot", "assay_type": "in vivo, mouse", "procedure": "(§1) The effect of CPO_Aβ17-21 P on Aβ deposition was tested in APP/PS1 Tg mice with plaque pathology. This AD mouse model develops plaque pathology from the age of 3 months. Animals were divided into two groups and received intraperitoneally (i.p.) injections of 0.2 mg of CPO_ Aβ17–21 P per mouse in sterile saline (n = 11, 5 male, 6 female) or saline alone (n = 10, 5 male, 5 female) as a control twice weekly for 4 months, beginning at age 3 months. During the treatment, veterinary staff monitored animals for any signs of toxicity, such as changes in body weight, physical appearance, and altered behavior. Animals were sacrificed a week after administration of the last treatment dose and behavioral testing. All mouse care and experimental procedures were compliant with guidelines of animal experimentation and were approved by the Institutional Animal Care and Use Committee at the New York University School of Medicine.\nBrains were weighed and homogenized (10% w/v) in tissue homogenization buffer (20 mM Tris base, pH 7.4, 250 mM sucrose, 1 mM EDTA, 1 mM EGTA) with […] phenylmethylsulphonyl fluoride, complete protease inhibitor cocktail and PhosSTOP phosphatase inhibitor cocktail (Roche, Indianapolis, IN, USA) added immediately before homogenization. The extraction of soluble Aβ and total Aβ was according to the method we have published previously, [44]. Brain homogenates were mixed with an equal volume of cold 0.4% diethylamine (DEA)/100 mM NaCl, and subsequently centrifuged at 100,000 × g for 1 hr at 4 °C. The supernatant was neutralized with 1/10 volume of 0.5 M Tris, pH 6.8, flash-frozen on dry ice and stored at −80 °C until used for ELISA analysis as soluble Aβ fraction. […] Soluble and total Aβ levels in the brain were measured by sandwich ELISA which used 6E10 monoclonal antibody as a capture antibody and two detection polyclonal antibodies R162 and R165 specific for Aβ40 and Aβ42, respectively. […]\nOligomeric Aβ (o-Aβ) levels were determined with the Biosensis Oligomeric Amyloid-Beta ELISA kit (Biosensis, Thebarton, South Australia) following the manufacturer’s instructions. In brief, the unknown concentrations of o-Aβ in samples were measured against a standard containing different concentrations of o-Aβ. […] The TMB reaction was stopped and the absorbance of each well was read at 450 nm. The standards provided a linear curve and the best-fit line determined by linear regression were used to calculate the concentration of Aβ oligomers in the samples\nBrain homogenates were centrifuged at 100,000 × g for 1 hr at 4 °C. The supernatants were collected and the total protein concentrations were determined by the bicinchoninic acid assay (BCA; Pierce, Rockford, IL). […]"}, "[3]": {"system": "APP/PS1 Tg mice", "assay": "Plasma total cholesterol level", "assay_type": "in vivo", "conditions": "0.2 mg per mouse i.p. twice weekly for 4 months; p > 0.05", "procedure": "as §1\nPlasma cholesterol level was measured by using a Cholesterol E kit (Wako Diagnostics, Richmond, VA)[45]. The Cholesterol E is an enzymatic colorimetric method for the quantitative determination of total cholesterol in the blood."}}, "note": "Numbered stars: 1 amine (or outer) side, 2 acyl side, 3 side chain; on linkers, the order of the positions; unused ones are H or OH. Bridge positions count the residues as written; N and C are the ends. Square brackets hold non-standard residues; d marks the D form. Peptide text beside a SMILES is read from it. ξ: configuration not given here. N(CH2CH2CO)Gly = O=C(CN(CCC(=O)[*:3])[*:1])[*:2]; Nphe = O=C(O)CNCc1ccccc1; Nleu = CC(C)CNCC(=O)O; ξP = O=C(O)C1CCCN1; Sar = CNCC(=O)O"}
{"smiles": "CC(C)CN1CC(=O)N2CCCC2C(=O)N(Cc2ccccc2)CC(=O)N(Cc2ccccc2)CC(=O)N(C)CC(=O)N(CC(N)=O)CCC1=O", "note": "(stereo not shown) [CPO_Aβ17-21 P] ([Nleu][ξP][Nphe][Nphe][Sar][N(CH2CH2CO)Gly]-NH2; lactam N-6)", "values": [{"measurement": "radial arm maze, number of errors", "setting": "[1]; p < 0.01 two-way ANOVA treatment effect", "result": "significant cognitive improvement"}, {"measurement": "novel object recognition", "setting": "[1]; p = 0.016", "result": "significant cognitive improvement"}, {"measurement": "Aβ42 in the insoluble (formic acid) brain fraction", "setting": "[2]; ELISA, p < 0.0001 versus vehicle", "result": "Reduction"}, {"measurement": "Aβ40 in the insoluble (formic acid) brain fraction", "setting": "[2]; ELISA, p < 0.001 versus vehicle", "result": "Reduction"}, {"measurement": "Aβ oligomeric species by western blot", "setting": "[2]; anti-amyloid antibody 4G8, brain homogenates, p < 0.05 versus vehicle", "result": "Reduction"}, {"measurement": "Aβ oligomeric species by ELISA", "setting": "[2]; brain homogenates, p < 0.05 versus vehicle", "result": "Reduction"}, {"measurement": "plasma total cholesterol level, treated versus vehicle", "setting": "[3]", "result": "no significant difference"}]}
